Experiments:
[1] = sensitivity of the VSD according to an external voltage (FIGS. 4A and 4B); conditions: electrical stimulation=500 mA; compared with Di-4-ANEPPS
Excerpt: VSD according to an external voltage, and FIG. 4B is a diagram showing sensitivity of the VSD of the exemplary embodiment of the present invention according to an external voltage.
Referring to FIGS. 4A and 4B, sensitivities according to a voltage between the conventional VSD (Di-4-ANEPPS) in FIG. 4A and the VSD according to the exemplary embodiment of the present invention (ETRI-Di-8) in FIG. 4B are compared (electrical stimulation=500 mA).

[2] = used in vitro to dye a cell; cited from earlier work

| SMILES | voltage sensitivity relative to Di-4-ANEPPS [1] | sensitivity to an electric field [2] |
| --- | --- | --- |
| O=S1(=O)CCCO1 [ETRI-Di-8] | three |  |
| CCCCN(CCCC)c1ccc2cc(/C=C/c3cc[n+](CCCS(=O)(=O)[O-])cc3)ccc2c1 [Di-4-ANEPPS] |  | approximately 10 % per 100 mV |

Reference: patent publication US20110144348A1, “VOLTAGE-SENSITIVE DYE AND METHOD OF PREPARING THE SAME” (Electronics and Telecommunications Research Institute, priority 2009, published 2011)
